Assay results: US20050158385A1, “Coating technique for deposition of drug substance on a substrate” (priority 2002, published 2005)

Test: in vitro release (dissolution) of tablets, USP II apparatus
Assay type: physicochemical
Details: tablets from Trial 2 (three strands of PVDF as core), 250 ml 0.1 N HCl, 37° C., paddle 50 rpm
Experimental: The dimensions of the tablets from both trials were similar, as both trials yielded tablets approximately 3 mm thick. To determine the dose of 2,3:4,5-bis-O-(1-methylethylidene)-β-D-fructopyranose sulfamate in each tablet, the tablet was dissolved in 10 ml H2O/0.1 N HCl 9/1 v/v. The concentration of 2,3:4,5-bis-O-(1-methylethylidene)-β-D-fructopyranose sulfamate was analyzed by HPLC (Waters System with Millenium Software, 2690 Alliance, Waters, Milford, Mass.). A sample of 50 uL is injected into a Zorbax Eclipse (HP, Palo Alto, Calif.) column (XDB-C8, 4.6*150 mm, P/N: 993967.906). The mobile phase consists of H2O/methanol 68/32 w/w at a flow rate of 1.5 mL/min. The concentration was determined with a refractive index detector (Sensitivity 32). The peak retention time is 6.7 minutes and the run takes 14 minutes.
The in vitro release of the tablets made in this example was also determined. Four tablets from Trial 2 were placed in a USP II apparatus (SR8 plus, Hanson, Chatsworth, Calif.) containing 250 ml of 0.1 N HCl at 37° C. and a paddle rotating at 50 rpm. Dissolution was followed up to 1 hour, with samples taken after 5, 15, 30 and 60 minutes. An aliquot of 5 ml was filtered through a PTFE 0.2 micron filter. The sample was not replaced with fresh solvent. The concentration of 2,3:4,5-bis-O-(1-methylethylidene)-β-D-fructopyranose sulfamate was analyzed by HPLC as discussed above.

CC1(C)O[C@@H]2[C@@H](CO[C@@]3(COS(N)(=O)=O)OC(C)(C)O[C@@H]23)O1 [2,3:4,5-bis-O-(1-methylethylidene)-β-D-fructopyranose sulfamate]
2,3:4,5-bis-O-(1-methylethylidene)-β-D-fructopyranose sulfamate released (after 5 minutes): approximately 4% | 2,3:4,5-bis-O-(1-methylethylidene)-β-D-fructopyranose sulfamate released (by 15 minutes): about 48% | 2,3:4,5-bis-O-(1-methylethylidene)-β-D-fructopyranose sulfamate released (in 30 minutes): complete release
